From DBAASP
Converted amounts (≈) assume the structure as drawn. One block for each compound: values may come before it.

Legend:
Experiment in all cases: ≥ marks a high value that may be exact or a test limit, other limits are often not marked, values filed in µg/mL are converted to µM
[1] = test system: Salmonella enterica subsp. enterica serovar Typhimurium ATCC 14028s
[2] = test system: Pseudomonas aeruginosa Z61
[3] = test system: Staphylococcus epidermidis C621
[4] = test system: Escherichia coli CGSC 4908
[5] = test system: Salmonella enterica serovar typhimurium MS7953s
[6] = test system: Pseudomonas aeruginosa K799
[7] = test system: Staphylococcus aureus C623
[8] = test system: Aeromonas salmonicida 97-4
[9] = test system: Aeromonas salmonicida 99-1
Escherichia coli UB1005 = test system: Escherichia coli UB1005
Candida albicans C627 = test system: Candida albicans C627
Escherichia coli DC2 = test system: Escherichia coli DC2
[10] = test system: Enterococcus faecalis ATCC 19433
Escherichia coli BW25113 = test system: Escherichia coli BW25113
[11] = test system: Pseudomonas aeruginosa ATCC 27853
[12] = test system: Staphylococcus aureus ATCC 25923
Escherichia coli = test system: Escherichia coli
[13] = test system: Escherichia coli BW25113 ΔsbmA
[14] = test system: Acinetobacter baumannii ATCC 19606
[15] = test system: Klebsiella pneumoniae ATCC 700603
[16] = test system: Salmonella enterica subsp. enterica serovar Typhimurium ATCC 14028
[17] = test system: Staphylococcus epidermidis
[18] = test system: Escherichia coli K12 MG1655
Escherichia coli UTI89 = test system: Escherichia coli UTI89
Escherichia coli BL21 = test system: Escherichia coli BL21
Pseudomonas syringae = test system: Pseudomonas syringae
[19] = test system: Streptococcus pyogenes GAS M1T1
[20] = test system: Xanthomonas axonopodis pv. phaseoli ATCC 9563
[21] = test system: Escherichia coli ATCC 25922
[22] = test system: Staphylococcus aureus LAC

MIC [1]: 11.6 µM (≈ 32 µg/mL)
MIC [2]: 1.45 µM (≈ 4 µg/mL)
MIC [3]: 23.2 µM (≈ 64 µg/mL)
MIC [4]: 1.45 µM (≈ 4 µg/mL)
MIC [5]: 1.45 µM (≈ 4 µg/mL)
MIC [6]: 11.6 µM (≈ 32 µg/mL)
MIC [7]: 23.2 µM (≈ 64 µg/mL)
MIC [8]: 2.9 µM (≈ 7.99 µg/mL)
MIC [9]: 2.9 µM (≈ 7.99 µg/mL)
MIC (Escherichia coli UB1005): 5.8 µM (≈ 16 µg/mL)
MIC (Candida albicans C627): 11.6 µM (≈ 32 µg/mL)
MIC (Escherichia coli DC2): 1.45 µM (≈ 4 µg/mL)
SMILES: CC(=O)[C@H](CC(C)C)NC(=O)[C@H](Cc1ccc(O)cc1)NC(=O)[C@H](Cc1cnc[nH]1)NC(=O)[C@H](CC(=O)O)NC(=O)[C@H](CC(C)C)NC(=O)[C@H](C)NC(=O)[C@H](CC(C)C)NC(=O)CNC(=O)CNC(=O)[C@@H](NC(=O)[C@@H](NC(=O)[C@H](CCCCN)NC(=O)CNC(=O)[C@@H](NC(=O)[C@H](CCCCN)NC(=O)[C@H](CCCCN)NC(=O)[C@H](C)NC(=O)[C@H](CCCCN)NC(=O)[C@H](CCCNC(=N)N)NC(=O)[C@H](Cc1ccccc1)NC(=O)[C@@H](NC(=O)[C@H](CO)NC(=O)[C@H](CCCCN)NC(=O)[C@H](Cc1c[nH]c2ccccc12)NC(=O)CN)C(C)C)C(C)C)[C@@H](C)O)C(C)C [GWKSVFRKAKKVGKTVGGLALDHYL]

MIC [10]: ≥ 154 µM
SMILES: CC[C@@H](C)[C@@H](NC(=O)[C@@H](CCCN=C(N)N)NC(=O)[C@@H](CCCN=C(N)N)NC(=O)[C@@H](Cc1c[nH]c2ccccc12)NC(=O)[C@@H](CCC(N)=O)NC(=O)[C@H](N)C(C)C)C(=O)N[C@H](CCCN=C(N)N)C(=O)N[C@@H](C(=O)N[C@H](Cc1c[nH]c2ccccc12)C(=O)N[C@@H](C(=O)N[C@@H](C(=O)N[C@H](CCCN=C(N)N)C(=O)O)[C@H](C)CC)C(C)C)C(C)C [VQWRRIRVWVIR]

MIC (Escherichia coli BW25113): 4 µM (≈ 9.61 µg/mL)
MIC [11]: 32 µM (≈ 76.9 µg/mL)
MIC [12]: 64 µM (≈ 154 µg/mL)
MIC (Escherichia coli): 1.41 µM (≈ 3.4 µg/mL)
MIC [13]: 4 µM (≈ 9.61 µg/mL)
MIC [14]: 8 µM (≈ 19.2 µg/mL)
MIC [15]: 4 µM (≈ 9.61 µg/mL)
SMILES: CC[C@H](C)[C@H](NC(=O)[C@@H]1CCCN1C(=O)[C@H](CCCN=C(N)N)NC(=O)[C@H](CCCN=C(N)N)NC(=O)[C@H](Cc1c[nH]c2ccccc12)NC(=O)[C@@H](N)CCCN=C(N)N)C(=O)N[C@@H](CCCN=C(N)N)C(=O)N[C@@H](CCCN=C(N)N)C(=O)N[C@@H](CCCN=C(N)N)C(=O)N1CCC[C@H]1C(=O)N[C@H](C(=O)N[C@@H](CCCN=C(N)N)C(=O)N1CCC[C@H]1C(=O)N1CCC[C@H]1C(=O)N[C@@H](Cc1ccccc1)C(=O)N[C@@H](Cc1c[nH]c2ccccc12)C(=O)N[C@@H](CCCN=C(N)N)C(=O)O)[C@@H](C)CC [RWRRPIRRRPIRPPFWR]

MIC [16]: > 50 µM
MIC [17]: ≥ 50 µM
MIC [18]: 12.5 µM (≈ 23.5 µg/mL)
MIC (Escherichia coli UTI89): 12.5 µM (≈ 23.5 µg/mL)
SMILES: CC[C@H](C)[C@H](NC(=O)[C@H](CCCCN)NC(=O)[C@H](CCC(N)=O)NC(=O)[C@H](Cc1c[nH]c2ccccc12)NC(=O)[C@@H](NC(=O)[C@H](CCCCN)NC(=O)[C@@H](N)CCCCN)[C@@H](C)CC)C(=O)N[C@@H](CCCN=C(N)N)C(=O)N[C@@H](CC(N)=O)C(=O)N[C@@H](Cc1ccccc1)C(=O)N[C@@H](Cc1ccccc1)C(=O)N[C@@H](CCC(N)=O)C(=O)N[C@@H](CCCCN)C(=O)N[C@@H](CC(C)C)C(=O)O [KKIWQKIRNFFQKL]

MIC (Escherichia coli BL21): 2 µM (≈ 6.37 µg/mL)
MIC (Pseudomonas syringae): 8 µM (≈ 25.5 µg/mL)
MIC [19]: 8 µM (≈ 25.5 µg/mL)
MIC [20]: 1 µM (≈ 3.19 µg/mL)
SMILES: CC[C@H](C)[C@H](NC(=O)[C@H](CCC(=O)O)NC(=O)[C@H](CC(N)=O)NC(=O)[C@H](CCCCN)NC(=O)[C@H](CC(C)C)NC(=O)[C@H](Cc1ccc(O)cc1)NC(=O)[C@H](CCC(N)=O)NC(=O)[C@H](CCCN=C(N)N)NC(=O)[C@@H](NC(=O)[C@@H](NC(=O)[C@H](CCCCN)NC(=O)[C@H](CCCCN)NC(=O)[C@H](Cc1c[nH]c2ccccc12)NC(=O)[C@H](C)N)[C@@H](C)O)[C@@H](C)CC)C(=O)N[C@@H](CCCCN)C(=O)N[C@@H](CCCCN)C(=O)N[C@@H](CCCCN)C(=O)N[C@@H](Cc1c[nH]c2ccccc12)C(=O)N[C@@H](CCCN=C(N)N)C(=O)N[C@@H](CCCCN)C(=O)N[C@@H](C)C(=O)N[C@H](C(=O)N[C@H](C(=O)N[C@@H](C)C(=O)N[C@@H](Cc1c[nH]c2ccccc12)C(=O)O)[C@@H](C)CC)C(C)C [AWKKTIRQYLKNEIKKKWRKAVIAW]

MIC (Escherichia coli BW25113): 4 µM (≈ 11.3 µg/mL)
MIC [11]: > 64 µM
MIC [16]: > 64 µM
MIC [12]: > 64 µM
MIC [13]: ≥ 64 µM
MIC [21]: 8 µM (≈ 22.6 µg/mL)
MIC [14]: 8 µM (≈ 22.6 µg/mL)
MIC [15]: > 64 µM
SMILES: CC[C@H](C)[C@H](NC(=O)[C@@H]1CCCN1C(=O)[C@@H]1CCCN1C(=O)[C@H](CCCN=C(N)N)NC(=O)[C@H](Cc1ccccc1)NC(=O)[C@@H]1CCCN1C(=O)[C@@H]1CCCN1C(=O)[C@H](Cc1ccc(O)cc1)NC(=O)[C@H](Cc1ccccc1)NC(=O)[C@@H]1CCCN1C(=O)[C@@H]1CCCN1C(=O)[C@H](CCCN=C(N)N)NC(=O)[C@@H](NC(=O)[C@@H]1CCCN1C(=O)[C@@H]1CCCN1C(=O)[C@H](CCCN=C(N)N)NC(=O)[C@H](CCCN=C(N)N)NC(=O)[C@@H](NC(=O)[C@@H]1CCCN1C(=O)[C@@H]1CCCN1C(=O)[C@@H](N)CCCN=C(N)N)[C@@H](C)CC)[C@@H](C)CC)C(=O)N[C@@H](CCCN=C(N)N)C(=O)N1CCC[C@H]1C(=O)O [RPPIRRPPIRPPFYPPFRPPIRP]

MIC [21]: > 98.8 µM
MIC [22]: ≥ 98.8 µM
SMILES: NC(N)=NCCC[C@H](NC(=O)[C@H](CCCN=C(N)N)NC(=O)[C@H](CCCN=C(N)N)NC(=O)[C@H](CCCN=C(N)N)NC(=O)[C@H](Cc1ccc(O)cc1)NC(=O)[C@H](Cc1ccc(O)cc1)NC(=O)[C@H](Cc1ccc(O)cc1)NC(=O)[C@@H](N)Cc1ccc(O)cc1)C(=O)O [YYYYRRRR]

MIC [1]: 28.3 µM (≈ 63.9 µg/mL)
MIC [2]: 3.54 µM (≈ 7.99 µg/mL)
MIC [3]: 14.2 µM (≈ 32 µg/mL)
MIC [4]: 14.2 µM (≈ 32 µg/mL)
MIC [5]: 7.08 µM (≈ 16 µg/mL)
MIC [6]: 14.2 µM (≈ 32 µg/mL)
MIC [7]: 28.3 µM (≈ 63.9 µg/mL)
MIC [8]: 14.2 µM (≈ 32 µg/mL)
MIC [9]: 28.3 µM (≈ 63.9 µg/mL)
MIC (Escherichia coli UB1005): 14.2 µM (≈ 32 µg/mL)
MIC (Candida albicans C627): 28.3 µM (≈ 63.9 µg/mL)
MIC (Escherichia coli DC2): 14.2 µM (≈ 32 µg/mL)
SMILES: CC[C@H](C)[C@H](NC(=O)[C@H](CCCCN)NC(=O)CNC(=O)[C@@H](NC(=O)[C@H](Cc1cnc[nH]1)NC(=O)[C@H](Cc1cnc[nH]1)NC(=O)[C@@H](NC(=O)CNC(=O)[C@H](Cc1cnc[nH]1)NC(=O)[C@H](Cc1ccccc1)NC(=O)[C@H](CC(C)C)NC(=O)[C@H](CC(C)C)NC(=O)[C@H](CCCNC(=N)N)NC(=O)[C@H](Cc1ccccc1)NC(=O)[C@@H](N)Cc1ccccc1)C(C)C)C(C)C)C(=O)N[C@@H](CCCCN)C(=O)N1CCC[C@H]1C(=O)N[C@@H](CCCNC(=N)N)C(=O)N[C@@H](C)C(C)=O [FFRLLFHGVHHVGKIKPRA]

MIC [16]: > 50 µM
MIC [17]: 12.5 µM (≈ 23.5 µg/mL)
MIC [18]: ≥ 50 µM
MIC (Escherichia coli UTI89): 25 µM (≈ 46.9 µg/mL)
SMILES: CC[C@H](C)[C@H](NC(=O)[C@H](CCCCN)NC(=O)[C@H](CCC(N)=O)NC(=O)[C@H](Cc1c[nH]c2ccccc12)NC(=O)[C@@H](NC(=O)[C@H](CCCCN)NC(=O)[C@@H](N)CCCCN)[C@@H](C)CC)C(=O)N[C@@H](CCCCN)C(=O)N[C@@H](CC(N)=O)C(=O)N[C@@H](Cc1ccccc1)C(=O)N[C@@H](Cc1ccccc1)C(=O)N[C@@H](CCCN=C(N)N)C(=O)N[C@@H](CCCCN)C(=O)N[C@@H](CC(C)C)C(=O)O [KKIWQKIKNFFRKL]

MIC [21]: > 117 µM
MIC [22]: ≥ 117 µM
SMILES: CC[C@H](C)[C@H](N)C(=O)N[C@H](C(=O)N[C@H](C(=O)N[C@H](C(=O)N[C@@H](CCCN=C(N)N)C(=O)N[C@@H](CCCN=C(N)N)C(=O)N[C@@H](CCCN=C(N)N)C(=O)N[C@@H](CCCN=C(N)N)C(=O)O)[C@@H](C)CC)[C@@H](C)CC)[C@@H](C)CC [IIIIRRRR]
